From patent US4556677A, “Alkane and alkene derivatives and their use” (Farmos Group Ltd., priority 1981, dated 1985)
Counter-ions that a name gives are not always drawn. Like-named read-outs stand apart in the source and are kept apart here.

Assays:
estrogen receptors = target: T1, estrogen receptors (Rattus norvegicus, UniProt P06211); assay: affinity to estrogen receptors, competition with 3H-labelled 17-β-estradiol (dextran-charcoal method); format: binding; settings: rat uterus cytosol, Table 1; read-out: Affinity (concentration of compound where 50% competition (inhibition) with 3H-estradiol occurred)
T1 construct: rat uterus cytosol preparation; from tissue; host or cells: rat uterus cytosol
T1 sequence (P06211 1-600): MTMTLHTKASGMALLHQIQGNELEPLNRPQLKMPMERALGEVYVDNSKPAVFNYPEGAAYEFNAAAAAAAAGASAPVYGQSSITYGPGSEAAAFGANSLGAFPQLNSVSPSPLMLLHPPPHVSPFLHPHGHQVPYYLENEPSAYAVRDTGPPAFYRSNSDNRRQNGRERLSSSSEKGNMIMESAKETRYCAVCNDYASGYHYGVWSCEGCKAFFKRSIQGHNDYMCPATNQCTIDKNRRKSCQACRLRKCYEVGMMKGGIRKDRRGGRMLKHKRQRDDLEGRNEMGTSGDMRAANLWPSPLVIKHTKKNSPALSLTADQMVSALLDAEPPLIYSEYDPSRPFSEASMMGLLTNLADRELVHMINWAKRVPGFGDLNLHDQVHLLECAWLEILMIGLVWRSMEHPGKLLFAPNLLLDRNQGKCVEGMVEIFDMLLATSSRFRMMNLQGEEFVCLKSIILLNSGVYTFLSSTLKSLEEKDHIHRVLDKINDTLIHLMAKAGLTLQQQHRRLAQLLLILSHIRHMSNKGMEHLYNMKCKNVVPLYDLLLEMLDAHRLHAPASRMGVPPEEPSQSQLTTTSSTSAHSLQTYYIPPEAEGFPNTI
Procedure: The affinity to estrogen receptors was determined by the ability of the molecules to compete with ^3 H-labelled 17-β-estradiol in rat uterus cytosol preparation. After incubation, receptor-bound and receptor-unbound ligands were separated by a known dextrancharcoal method. (Korenman, S. G.: "Comparative binding affinity of estrogens and its relation to estrogenic potency". Steroids 13: 163-177, 1969). […] The results in table 1 are shown as follows: | with ^3 H--estradiol occurred

immature mouse uterus [1] = assay: estrogenic effect in vivo, immature mouse uterus weight; settings: for oestrogenic effect, % less than that of oestradiol 0.05 mg/kg: s.c., immature mice; for estrogenic effect (in words): immature mouse uterus weight; for Given alone: oestrogenic effect (in words): Table 2, 0.5 mg/kg
Procedure: (§1) The estrogen-antiestrogen (progesterone-antiprogesterone) effect in vivo was determined as follows:
The estrogenic properties of the molecules were determined by administering the molecules, suspended in sesam oil, subcutaneously to 21 days old immature mice on three consecutive days. The mice were killed on the fourth day and the uterus was weighed. Estradiol (positive control) increases the weight of the uterus. The weight correlates with the estrogenic effect of the molecules.
The estrogenic effect of compounds of the invention as measured by their ability to increase the weight of immature mouse uterus was usually far less than that of oestradiol, the positive control. […] At the dose of 0.5 mg/kg the oestrogenic effect of compound 1, 7 and 8 were respectively 20%, 75% and 83% less and at the dose of 5 mg/kg the oestrogenic effect of compound 2 was 60% less than that of oestradiol 0.05 mg/kg.
(§2) In Table 2 a summary of the oestrogenic/antioestrogenic and progestanic/antiprogestanic effect of some of the compounds can be seen. The percentages refer to increase/reduction in mice uterus weights.

immature mouse uterus [2] = assay: antiestrogenic effect in vivo, inhibition of oestradiol induced uterus weight increase in immature mice; settings: for antiestrogenic effect (in words): immature mice
Procedure: as §1
The antiestrogenic effects of the molecules were determined in a similar manner in immature mice. In this case, the ability of the molecules to inhibit estrogen-induced uterus weight increase was investigated, too.
The compound 1 at a dose of 0.5 mg/kg caused a 50% inhibition of oestradiol induced effect on mouse uterus.
as §2

[3] = test system: MCF-7 human mammary adenocarcinoma cell line; assay: anti-tumour effect in vitro, growth of MCF-7 cells (bioluminescence ATP assay); format: cell-based; settings: MCF-7, Table 3, read-out: Antitumour effect (IC50 = concentration of compound where 50% inhibition of cell growth could be seen)
Procedure: The anti-tumour effect was studied in vitro as follows:
The growth of MCF-7 cell line (human mammary adenocarcinoma, known to be estrogen-dependent) was evaluated in the presence or absence of estradiol, medroxyprogesterone acetate or the molecules to be investigated. Combinations of molecule plus estradiol and molecule plus medroxyprogesterone were also studied. The amount of living cells after 4 h, 24 h and 48 h incubations were determined by bioluminescence assay (intracellular ATP determination).
The antitumour effects of the compounds had been tested in vitro against MCF-7 human mammary adenocarcinoma cell line and in vivo against DMBA-induced rat mammary adenocarcinomas and transplantable mammary adenocarcinoma.
In table 3 the antitumour effects of certain compounds can be seen.

[4] = test system: DMBA-induced rat mammary adenocarcinomas; assay: antitumour effect in vivo against DMBA-induced rat mammary adenocarcinomas
Procedure: (§3) The anti-tumour effect was investigated in vivo against DMBA-induced rat mammary adenocarcinomas and transplantable mammary adenocarcinoma according to the following methods:
Mammary adenocarcinomas were induced by DMBA in 35-40 days old female rats. Treatment with the molecules to be investigated was started after palpable tumours had appeared. Tumour size and numbers of tumours were evaluated twice a week. Tumour sizes in the control group, treated with solvent, were compared with the test groups.
The antitumour effect in vivo against DMBA-induced mammary carcinomas was investigated as described earlier. […] Compound 2 at the dose of 7.5 mg/kg caused a 63% decrease in the size of tumours compared to the control.

[5] = test system: transplantable rat mammary adenocarcinoma; assay: effect on transplantable rat mammary adenocarcinoma; format: in vivo
From the text: as §3
Transplantable rat mammary adenocarcinoma was developed by inoculating pieces of DMBA-induced carcinomas subcutaneously to healthy mature female rats. A tumor which expressed malignant growth was selected for further transplantations.
The effects of compounds mentioned earlier against transplantable rat mammary adenocarcinoma can be seen in table 4.
The figures in table 4 refer to relative sizes compared to controls which is 100.

mouse uterus [6] = assay: progestanic effect in vivo, reduction of mouse uterus weight; settings: for Given alone: progestanic effect (in words) / Given alone: reduction in mice uterus weight: Table 2, 0.5 mg/kg
Procedure: as §1
(§4) The (anti)progestanic effects were studied in a similar manners as the estrogenic ones. Medroxyprogesterone acetate, which decreases uterus weight, was used as reference.
(§5) The progestanic and antiprogestanic effects of compounds were measured as described earlier. The compound No. 2 reduced the weight of mouse uterus by 49% compared to control while medroxyprogesterone acetate gave 40% reduction.
as §2

mouse uterus [7] = assay: antiprogestanic/synergistic effect in vivo, given together with medroxyprogesterone acetate, mouse uterus weight; settings: for Given with medroxyprogesterone acetate: effect (in words) / Given with medroxyprogesterone acetate: reduction in mice uterus weight: Table 2, 0.5 mg/kg, with medroxyprogesterone acetate 0.06 mg/kg
Procedure: as §1, §4, §5, §2

[8] = Table 2, 0.5 mg/kg, with oestradiol 0.05 mg/kg
[9] = together with medroxyprogesterone acetate

CC/C(=C(/c1ccccc1)c1ccc(O)cc1)C1CCCC1 [Compound 1, (E)--2-cyclopentyl-1-(p-hydroxyphenyl)-1-phenyl-1-butene]
IC50 (estrogen receptors): 0.1 to 1 µM
oestrogenic effect, % less than that of oestradiol 0.05 mg/kg (immature mouse uterus [1]; 0.5 mg/kg): 20%
estrogenic effect (in words) (immature mouse uterus [1]): dose dependent
inhibition of oestradiol induced effect on mouse uterus (immature mouse uterus [2]; 0.5 mg/kg): 50%
IC50 ([3]; Homo sapiens, MCF7): 1 to 5 µM
decrease in size of tumours compared to the control ([4]; 10 mg/kg): 75%
growth of the tumours (in words) ([4]; 10 mg/kg): the growth of the tumours was slowed
number of the tumours (in words) ([4]; 10 mg/kg): the number of the tumours was decreasing
relative tumour size compared to controls which is 100 ([5]; 1.0 mg/kg): 80
relative tumour size compared to controls which is 100 ([5]; 5.0 mg/kg): 77
relative tumour size compared to controls which is 100 ([5]; 10.0 mg/kg): 58
relative tumour size compared to controls which is 100 ([5]; 20.0 mg/kg): 64
relative tumour size compared to controls which is 100 ([5]; 40.0 mg/kg): 40

CC/C(=C(\c1ccccc1)c1ccc(OCCN(C)C)cc1)C1CCCC1 [Compound 2, (Z)--2-cyclopentyl-1-(p-(N,N--dimethyl-2-amino-ethoxy)phenyl)-1-phenyl-1-butene, hydrochloride]
IC50 (estrogen receptors): 0.1 to 10 µM
oestrogenic effect, % less than that of oestradiol 0.05 mg/kg (immature mouse uterus [1]; 5 mg/kg): 60%
Given alone: oestrogenic effect (in words) (immature mouse uterus [1]): oestrogenic
estrogenic effect (in words) (immature mouse uterus [1]): dose dependent
inhibition of oestradiol induced effect on mouse uterus (immature mouse uterus [2]; 5 mg/kg): 50%
Given with oestradiol: effect (in words) (immature mouse uterus [2]; [8]): antioestrogenic
Given with oestradiol: reduction in mice uterus weight (immature mouse uterus [2]; [8]): 36%
Given alone: progestanic effect (in words) (mouse uterus [6]; given alone): progestanic
Given alone: reduction in mice uterus weight (mouse uterus [6]; given alone): 49%
reduction of mouse uterus weight compared to control (mouse uterus [6]; given alone, dose not given): 49%
Given with medroxyprogesterone acetate: effect (in words) (mouse uterus [7]): synergistic
Given with medroxyprogesterone acetate: reduction in mice uterus weight (mouse uterus [7]): 61%
antiprogestanic / synergistic effect with medroxyprogesterone acetate (in words) (mouse uterus [7]; [9]): no antiprogestanic effects but a synergistic effect could be seen
IC50 ([3]; Homo sapiens, MCF7): 5 to 10 µM
decrease in size of tumours compared to the control ([4]; 7.5 mg/kg): 63%
relative tumour size compared to controls which is 100 ([5]; 1.0 mg/kg): 82
relative tumour size compared to controls which is 100 ([5]; 5.0 mg/kg): 87
relative tumour size compared to controls which is 100 ([5]; 10.0 mg/kg): 69

CC/C(=C(\c1ccccc1)c1ccc(O)cc1)C1CCCC1 [Compound 3, (Z)-2-cyclopentyl-1-(p-hydroxyphenyl)-1-phenyl-1-butene]
IC50 (estrogen receptors): 0.1 to 10 µM
IC50 ([3]; Homo sapiens, MCF7): 1 to 5 µM

CCC(C1CCCC1)C(c1ccccc1)c1ccc(O)cc1 (stereo not shown) [Compound 4, 2-cyclopentyl-1-(p-hydroxyphenyl)-1-phenylbutane]
IC50 (estrogen receptors): 0.1 to 1 µM
IC50 ([3]; Homo sapiens, MCF7): 1 to 5 µM

CCC(C1CCCC1)C(c1ccccc1)c1ccc(O)cc1 (stereo not shown) [Compound 5, 2-cyclopentyl-1-(p-hydroxyphenyl)-1-phenylbutane]
estrogenic effect (in words) (immature mouse uterus [1]): did not possess any estrogenic effects of their own
antiestrogenic effect (in words) (immature mouse uterus [2]): not antiestrogenic
progestanic effect (in words) (mouse uterus [6]; given alone): did not possess progestanic effects
antiprogestanic / synergistic effect with medroxyprogesterone acetate (in words) (mouse uterus [7]; [9]): slight inhibition of medroxyprogesterone acetate produced effect
IC50 [3]: 1 to 5 µM

CCC(C1CCCC1)C(c1ccccc1)c1ccc(O)cc1 (stereo not shown) [Compound 6, 2-cyclopentyl-1-(p-hydroxyphenyl)-1-phenylbutane]
estrogenic effect (in words) (immature mouse uterus [1]): did not possess any estrogenic effects of their own
antiestrogenic effect (in words) (immature mouse uterus [2]): not antiestrogenic
progestanic effect (in words) (mouse uterus [6]; given alone): did not possess progestanic effects
antiprogestanic / synergistic effect with medroxyprogesterone acetate (in words) (mouse uterus [7]; [9]): slight inhibition of medroxyprogesterone acetate produced effect
IC50 [3]: 1 to 5 µM

CCC(=C(c1ccc(O)cc1)c1ccc(OCCN(C)C)cc1)C1CCCC1 [Compound 7, 2-cyclopentyl-1-[p-(N,N-dimethyl-2-aminoethoxy)phenyl]-1-(p-hydroxyphenyl)-1-butene]
IC50 (estrogen receptors): 0.1 to 1 µM
oestrogenic effect, % less than that of oestradiol 0.05 mg/kg (immature mouse uterus [1]; 0.5 mg/kg): 75%
Given alone: oestrogenic effect (in words) (immature mouse uterus [1]): oestrogenic
estrogenic effect (in words) (immature mouse uterus [1]): dose dependent
inhibition of oestradiol induced effect on mouse uterus (immature mouse uterus [2]; 5 mg/kg): 48%
Given with oestradiol: reduction in mice uterus weight (immature mouse uterus [2]; Table 2, 5 mg/kg, with oestradiol 0.05 mg/kg): 48%
progestanic effect (in words) (mouse uterus [6]; given alone): did not posses any progestanic effects of its own
antiprogestanic / synergistic effect with medroxyprogesterone acetate (in words) (mouse uterus [7]; [9]): clear dose dependant antiprogestanic effect
IC50 ([3]; Homo sapiens, MCF7): 1 to 5 µM

CCC(c1ccc(O)cc1)C(CC)C1CCCC1 (stereo not shown) [Compound 9, 3-cyclopentyl-4-(p-hydroxyphenyl)-hexane]
IC50 (estrogen receptors): 0.1 to 1 µM
IC50 ([3]; Homo sapiens, MCF7): 1 to 10 µM

CC/C(=C(\c1ccccc1)c1ccc(OCCNC)cc1)C1CCCC1 [Compound 10, (Z)--2-cyclopentyl-1-[p-(N--methyl-2-aminoethoxy)-phenyl]-1-phenyl-1-butene, hydrochloride]
IC50 (estrogen receptors): 10 to 100 µM
IC50 ([3]; Homo sapiens, MCF7): 5 to 10 µM

CCC(=C(c1ccc(OC)cc1)c1ccc(OCCN(C)C)cc1)C1CCCC1 [Compound 11, 2-cyclopentyl-1-[p-(N,N-dimethyl-2-aminoethoxy)phenyl]-1-(p-methoxyphenyl)-1-butene]
IC50 (estrogen receptors): 10 to 100 µM
Given alone: progestanic effect (in words) (mouse uterus [6]; given alone): progestanic
Given alone: reduction in mice uterus weight (mouse uterus [6]; given alone): 20%
progestanic effect (in words) (mouse uterus [6]; given alone): purely due to its progestanic effect
reduction of mouse uterus weight (mouse uterus [6]; given alone, 0.5 mg/kg): 20%
Given with medroxyprogesterone acetate: effect (in words) (mouse uterus [7]): synergistic
Given with medroxyprogesterone acetate: reduction in mice uterus weight (mouse uterus [7]): 67%
reduction of mouse uterus weight together with medroxyprogesterone acetate (mouse uterus [7]; together with medroxyprogesterone acetate, vs 40% for the acetate alone): 67%
IC50 ([3]; Homo sapiens, MCF7): 1 to 10 µM
relative tumour size compared to controls which is 100 ([5]; 1.0 mg/kg): 87
relative tumour size compared to controls which is 100 ([5]; 5.0 mg/kg): 87
relative tumour size compared to controls which is 100 ([5]; 10.0 mg/kg): 50

CCC(CO)C(CC)c1ccc(O)cc1 (stereo not shown) [Compound 12, 2-ethyl-3-(p-hydroxyphenyl)-1-pentanol]
IC50 (estrogen receptors): 10 to 100 µM

CC(=O)O[C@]1(C(C)=O)CC[C@H]2[C@@H]3C[C@H](C)C4=CC(=O)CC[C@]4(C)[C@H]3CC[C@@]21C [medroxyprogesterone acetate, Medroxyprogesterone acetate, reference compound]
decrease of mouse uterus weight by medroxyprogesterone acetate alone (mouse uterus [6]; reference compared with compound 8): 20%
reduction of mouse uterus weight by medroxyprogesterone acetate alone (mouse uterus [6]; reference compared with compounds 2 and 11): 40%
